Converted amounts (≈) assume the structure as drawn. Starred links: 1 amine or outer side, 2 acyl side, 3 side chain; linkers in the order of their positions; H or OH if unused. Positions of bridges follow the written chain, without caps; N, C: chain ends. Non-standard residues stand in square brackets, D forms with d. Residues, ends and D or L forms follow the SMILES beside them. *: point of attachment. X1 = CC[C@H](C)[C@@H](N[*:1])[C@@H](O)CC(=O)O[C@H](C(=O)[C@H](C)C(=O)[*:2])C(C)C; NMeY = CN[C@@H](Cc1ccc(O)cc1)C(=O)O; dNMeL = CN[C@H](CC(C)C)C(=O)O; pGlu = O=C1CC[C@@H](C(=O)O)N1; Pyruvoyl = CC(=O)C(=O)*; Cbz = O=C(OCc1ccccc1)*; Boc = CC(C)(C)OC(=O)*; Lac = C[C@H](O)C(=O)O
Key:
HSV = experiment: Antiviral activities of didemnins, HSV/CV-1; assay type: cell-based; set-up: key: +++ = complete inhibition; ++ = strong inhibition; + = moderate inhibition; − = no inhibition
[1] = Cytotoxicity of didemnins (Table II); assay type: cell-based; conditions: for IC50: cytotoxicity
P388 Murine Leukemia = experiment: Life extension vs. P388 murine leukemia in mice; assay type: in vivo
CV-1 = experiment: Cytotoxicity score in the HSV/CV-1 antiviral assay; conditions: scale 0 (least toxic) to 16 (toxic)

Structure (SMILES)	Activity (HSV; 10 ng/mL)	Inhibition (%) ([1]; Dose 0.25 ng/mL)	Inhibition (%) ([1]; Dose 2.5 ng/mL)	Inhibition (%) ([1]; Dose 25 ng/mL)	Inhibition (%) ([1]; Dose 250 ng/mL)	IC50 [1]	T/C (% of Control, Life Extension) (P388 Murine Leukemia; Dose 0.025 mg/kg)	T/C (% of Control, Life Extension) (P388 Murine Leukemia; Dose 0.05 mg/kg)	T/C (% of Control, Life Extension) (P388 Murine Leukemia; Dose 1 mg/kg)	Cytotoxocity (CV-1; 10 ng/mL)	Cytotoxocity (CV-1; 20 ng/mL)	Cytotoxocity (CV-1; 50 ng/mL)	Cytotoxocity (CV-1; 100 ng/mL)	Activity (HSV; 20 ng/mL)	Activity (HSV; 50 ng/mL)	Activity (HSV; 100 ng/mL)
CC[C@H](C)[C@H]1NC(=O)[C@@H](NC(=O)[C@@H](CC(C)C)N(C)C(=O)[C@@H]2CCCN2C(=O)[C@H](C)OC(=O)[C@@H](N)CCC(N)=O)[C@@H](C)OC(=O)[C@H](Cc2ccc(OC)cc2)N(C)C(=O)[C@@H]2CCCN2C(=O)[C@H](CC(C)C)NC(=O)[C@@H](C)C(=O)[C@H](C(C)C)OC(=O)C[C@@H]1O [Gln-Didemnin B, Glutaminyl-didemnin B] (H-Q[Lac]P[dNMeL]T[X1]LP[NMeY](Me); ester 5-C)	+++	94%	100%	100%	100%	0.1 ng/mL (≈ 0.0806 nM)	152 % of Control	171 % of Control	185 % of Control	0	16	16	16			
CC[C@H](C)[C@H]1NC(=O)[C@@H](NC(=O)[C@@H](CC(C)C)N(C)C(=O)[C@@H]2CCCN2C(=O)OC(C)(C)C)[C@@H](C)OC(=O)[C@H](Cc2ccc(OC)cc2)N(C)C(=O)[C@@H]2CCCN2C(=O)[C@H](CC(C)C)NC(=O)[C@@H](C)C(=O)[C@H](C(C)C)OC(=O)C[C@@H]1O [Boc-Pro-didemnin A (158), Boc-L-prolyl-didemnin A] (Boc-P[dNMeL]T[X1]LP[NMeY](Me); ester 3-C)		0%	0%	55%	100%	85 ng/mL (≈ 74.5 nM)										
CC[C@H](C)[C@H]1NC(=O)[C@@H](NC(=O)[C@@H](CC(C)C)NC)[C@@H](C)OC(=O)[C@H](Cc2ccc(OC)cc2)N(C)C(=O)[C@@H]2CCCN2C(=O)[C@H](CC(C)C)NC(=O)[C@@H](C)C(=O)[C@H](C(C)C)OC(=O)C[C@@H]1O [Didemnin A (1), Didemnin A] (H-[dNMeL]T[X1]LP[NMeY](Me); ester 2-C)	−	0%	0%	70%	100%	75 ng/mL (≈ 79.5 nM)				0	0	0	0	+	+	+
CC[C@H](C)[C@H]1NC(=O)[C@@H](NC(=O)[C@@H](CC(C)C)N(C)C(=O)[C@@H]2CCCN2C(=O)[C@H](C)OC(=O)[C@@H]2CCC(=O)N2)[C@@H](C)OC(=O)[C@H](Cc2ccc(OC)cc2)N(C)C(=O)[C@@H]2CCCN2C(=O)[C@H](CC(C)C)NC(=O)[C@@H](C)C(=O)[C@H](C(C)C)OC(=O)C[C@@H]1O [pGlu-Didemnin B (39), L-Pyroglutaminyl-didemnin B] ([pGlu][Lac]P[dNMeL]T[X1]LP[NMeY](Me); ester 5-C)	+	94%	100%	100%	100%	0.1 ng/mL (≈ 0.0817 nM)				0	0	16	16	+++		
CC[C@H](C)[C@H]1NC(=O)[C@@H](NC(=O)[C@@H](CC(C)C)N(C)C(=O)[C@@H]2CCCN2)[C@@H](C)OC(=O)[C@H](Cc2ccc(OC)cc2)N(C)C(=O)[C@@H]2CCCN2C(=O)[C@H](CC(C)C)NC(=O)[C@@H](C)C(=O)[C@H](C(C)C)OC(=O)C[C@@H]1O [Prolyl-didemnin A (43), prolyl-didemnin A] (H-P[dNMeL]T[X1]LP[NMeY](Me); ester 3-C)		30%	40%	99%	100%	12 ng/mL (≈ 11.5 nM)										
CC[C@H](C)[C@H]1NC(=O)[C@@H](NC(=O)[C@@H](CC(C)C)N(C)C(=O)[C@@H]2CCCN2C(=O)C(C)=O)[C@@H](C)OC(=O)[C@H](Cc2ccc(OC)cc2)N(C)C(=O)[C@@H]2CCCN2C(=O)[C@H](CC(C)C)NC(=O)[C@@H](C)C(=O)[C@H](C(C)C)OC(=O)C[C@@H]1O [Dehydrodidemnin B (6), Dehydrodidemnin B] (Pyruvoyl-P[dNMeL]T[X1]LP[NMeY](Me); ester 3-C)	+	95%	100%	100%	100%	0.2 ng/mL (≈ 0.18 nM)				0	0	16	16	+++		
CC[C@H](C)[C@H]1NC(=O)[C@@H](NC(=O)[C@@H](CC(C)C)N(C)C(=O)[C@@H]2CCCN2C(=O)[C@H](C)OC(=O)[C@@H](N)CCC(N)=O)[C@@H](C)OC(=O)[C@H](Cc2ccc(OC)cc2)N(C)C(=O)[C@@H]2CCCN2C(=O)[C@H](CC(C)C)NC(=O)[C@@H](C)C(=O)[C@H](C(C)C)OC(=O)C[C@@H]1OC(=O)[C@@H](N)CCC(N)=O [Gln[GlnIst^2]-Didemnin B (160), Glutaminyl-glutaminyl-didemnin B]	+	0%	0%	87%	100%	50 ng/mL (≈ 36.5 nM)				0	0	0	0	+	+	+++
CC[C@H](C)[C@H]1NC(=O)[C@@H](NC(=O)[C@@H](CC(C)C)N(C)C(=O)[C@@H]2CCCN2C(=O)[C@H](C)OC(=O)[C@H](CCC(N)=O)NC(=O)[C@@H]2CCC(=O)N2)[C@@H](C)OC(=O)[C@H](Cc2ccc(OC)cc2)N(C)C(=O)[C@@H]2CCCN2C(=O)[C@H](CC(C)C)NC(=O)[C@@H](C)C(=O)[C@H](C(C)C)OC(=O)C[C@@H]1O [Didemnin M (5), L-Pyroglutaminyl-L-glutaminyl-didemnin B] ([pGlu]Q[Lac]P[dNMeL]T[X1]LP[NMeY](Me); ester 6-C)	+	94%	100%	100%	100%	0.8 ng/mL (≈ 0.592 nM)				0	0	16	16	+++		
CC[C@H](C)[C@H]1NC(=O)[C@@H](NC(=O)[C@@H](CC(C)C)N(C)C(=O)[C@@H]2CCCN2C(=O)[C@H](C)OC(=O)[C@H](CCC(N)=O)NC(=O)OCc2ccccc2)[C@@H](C)OC(=O)[C@H](Cc2ccc(OC)cc2)N(C)C(=O)[C@@H]2CCCN2C(=O)[C@H](CC(C)C)NC(=O)[C@@H](C)C(=O)[C@H](C(C)C)OC(=O)C[C@@H]1OC(=O)[C@H](CCC(N)=O)NC(=O)OCc1ccccc1 [Cbz-Gln[Cbz-GlnIst^2]DB (162), di-(benzyloxycarbonyl)glutaminyl-didemnin B]	+	0%	0%	87%	99%	50 ng/mL (≈ 30.5 nM)				0	0	0	0	+	+	+++
CC[C@H](C)[C@H]1NC(=O)[C@@H](NC(=O)[C@@H](CC(C)C)N(C)C(=O)[C@@H]2CCCN2C(=O)[C@H](C)OC(=O)[C@H](CCC(N)=O)NC(=O)OCc2ccccc2)[C@@H](C)OC(=O)[C@H](Cc2ccc(OC)cc2)N(C)C(=O)[C@@H]2CCCN2C(=O)[C@H](CC(C)C)NC(=O)[C@@H](C)C(=O)[C@H](C(C)C)OC(=O)C[C@@H]1O [Cbz-Gln-Didemnin B (161), N-Benzyloxycarbonyl-L-glutaminyl-didemnin B] (Cbz-Q[Lac]P[dNMeL]T[X1]LP[NMeY](Me); ester 5-C)	−	0%	0%	87%	100%	25 ng/mL (≈ 18.2 nM)				0	0	0	0	+	+	+
CC[C@H](C)[C@H]1NC(=O)[C@@H](NC(=O)[C@@H](CC(C)C)N(C)C(=O)[C@@H]2CCCN2C(=O)C(C)O)[C@@H](C)OC(=O)[C@H](Cc2ccc(OC)cc2)N(C)C(=O)[C@@H]2CCCN2C(=O)[C@H](CC(C)C)NC(=O)[C@@H](C)C(=O)[C@H](C(C)C)OC(=O)C[C@@H]1O (stereo partly shown) [Didemnin (B) (2), Didemnin B, reference compound]	+	0%	40%	100%	100%	7 ng/mL (≈ 6.29 nM)				0	0	0	16	+++	+++	
CC[C@H](C)[C@H]1NC(=O)[C@@H](NC(=O)[C@@H](CC(C)C)N(C)C(=O)[C@@H]2CCCN2C(=O)[C@H](C)OC(=O)[C@@H]2CCC(=O)N2C(=O)OCc2ccccc2)[C@@H](C)OC(=O)[C@H](Cc2ccc(OC)cc2)N(C)C(=O)[C@@H]2CCCN2C(=O)[C@H](CC(C)C)NC(=O)[C@@H](C)C(=O)[C@H](C(C)C)OC(=O)C[C@@H]1O [Cbz-pGlu-Didemnin B (145), N-Benzyloxycarbonyl-L-pyroglutaminyl-didemnin B]	−	0%	0%	70%	100%	50 ng/mL (≈ 36.8 nM)				0	0	0	0	+	+	+

— patent US6841530B2, “Semi-synthetic studies toward didemnin analogues” (The Board of Trustees of the University of Illinois, priority 1996, dated 2005)
